Patent US6627760B1, “Amorphous compound” (AstraZeneca AB, priority 2001, dated 2003)

What was measured:
[1] = Glass transition temperature by Thermal Mechanical Analysis (TMA); assay type: physicochemical; settings: heating rate 10° C./min, 30-160° C.
Procedure: The method involves compressing 140 mg of material in a punch and die (3 mm) to 2 KN. The compressed pellet was then placed on the TMA and the 1.1 mm probe placed on the top face. A heating rate of 10° C./min was used and the sample was heated from 30-160° C.

[2] = Glass transition temperature by Differential Scanning Calorimetry (DSC); assay type: physicochemical; settings: dry amorphous lisinopril
Procedure: Differential Scanning Calorimetry (DSC) was performed on approximately 0.5-3 mg sample, using a Mettler DSC820 instrument, according to standard methods, for example those described in Hohne et al. (1996) Differential scanning Calorimetry, Springer, Berlin.

[3] = cited from earlier work

Row | SMILES | glass transition temperature by TMA [1] | glass transition temperature (Tg) by DSC [2] | effective half-life of accumulation ([3]; multiple dosing) | time to peak serum concentrations ([3]; oral administration)
1 | NCCCC[C@H](NC(CCc1ccccc1)C(=O)O)C(=O)N1CCC[C@H]1C(=O)O (stereo partly drawn) [amorphous lisinopril, (S)-1-[N^2-(1-carboxy-3-phenylpropyl]-L-lysyl]-L-proline] | 129 °C | 125 °C | – | –
2 | NCCCC[C@H](NC(CCc1ccccc1)C(=O)O)C(=O)N1CCC[C@H]1C(=O)O (stereo partly drawn) [lisinopril, (S)-1-[N^2-(1-carboxy-3-phenylpropyl]-L-lysyl]-L-proline] | – | – | about 12.6 hours | ≤ 7 h
